Patent publication US7854753B2, “Photokinetic delivery of biologically active substances using pulsed incoherent light” (Photokinetix, Inc., priority 2002, dated 2010)

Key:
[1] = volume of water for 1 g; cited from earlier work
[2] = Franz skin diffusion cell permeation (percutaneous absorption) under ambient, natural or pulsed incoherent LED light

CC(=O)[C@H]1CC[C@H]2[C@@H]3CCC4=CC(=O)CC[C@]4(C)[C@H]3CC[C@]12C [Compound 18, Progesterone]
Water Solubility (1 g) [1]: Insoluble
Permeation 350 ([2]; 350 nm LED, pulse rate 24 cps, 75% duty cycle): 149.91 μg/0.64 cm^2/25 hrs
Permeation 1.7 cps ([2]; 350 nm, 1.7 cps): 2.58 μg/0.64 cm^2/25 hrs
Permeation 9.7 cps ([2]; 350 nm, 9.7 cps): 2.80 μg/0.64 cm^2/25 hrs
Permeation 405 ([2]; 405 nm LED, pulse rate 24 cps, 75% duty cycle): 6.19 μg/0.64 cm^2/25 hrs
Permeation Dark ([2]; Dark control, ambient light absent): 0.00 μg/0.64 cm^2/25 hrs
Permeation Ctrl ([2]; ambient cool fluorescent light only, 260-750 nm, 120 cps): 0.00 μg/0.64 cm^2/25 hrs
Permeation Ctrl-TiO2 ([2]; ambient fluorescent light, sample with 2% (w/w) rutile TiO2): 0.00 μg/0.64 cm^2/25 hrs
